Data from ChEMBL document CHEMBL1201862, “PubChem BioAssay data set” (2004).
Activity calls are given as the source filed them.

What was measured:
[1] = system: Streptococcus sp. 'group A'; assay: growth inhibition of control SK(-) GAS strain, dose response, counter-screen for streptokinase expression inhibitor project, luminescence, kanamycin, BacTiterGlo, confirmation (AID 1900); format: functional, organism-based
Beta-galactosidase = Beta-galactosidase (Escherichia coli, UniProt Q8VNN2); assay: PubChem AID 485352; format: functional
Chain of Beta-galactosidase (Q8VNN2 whole entry): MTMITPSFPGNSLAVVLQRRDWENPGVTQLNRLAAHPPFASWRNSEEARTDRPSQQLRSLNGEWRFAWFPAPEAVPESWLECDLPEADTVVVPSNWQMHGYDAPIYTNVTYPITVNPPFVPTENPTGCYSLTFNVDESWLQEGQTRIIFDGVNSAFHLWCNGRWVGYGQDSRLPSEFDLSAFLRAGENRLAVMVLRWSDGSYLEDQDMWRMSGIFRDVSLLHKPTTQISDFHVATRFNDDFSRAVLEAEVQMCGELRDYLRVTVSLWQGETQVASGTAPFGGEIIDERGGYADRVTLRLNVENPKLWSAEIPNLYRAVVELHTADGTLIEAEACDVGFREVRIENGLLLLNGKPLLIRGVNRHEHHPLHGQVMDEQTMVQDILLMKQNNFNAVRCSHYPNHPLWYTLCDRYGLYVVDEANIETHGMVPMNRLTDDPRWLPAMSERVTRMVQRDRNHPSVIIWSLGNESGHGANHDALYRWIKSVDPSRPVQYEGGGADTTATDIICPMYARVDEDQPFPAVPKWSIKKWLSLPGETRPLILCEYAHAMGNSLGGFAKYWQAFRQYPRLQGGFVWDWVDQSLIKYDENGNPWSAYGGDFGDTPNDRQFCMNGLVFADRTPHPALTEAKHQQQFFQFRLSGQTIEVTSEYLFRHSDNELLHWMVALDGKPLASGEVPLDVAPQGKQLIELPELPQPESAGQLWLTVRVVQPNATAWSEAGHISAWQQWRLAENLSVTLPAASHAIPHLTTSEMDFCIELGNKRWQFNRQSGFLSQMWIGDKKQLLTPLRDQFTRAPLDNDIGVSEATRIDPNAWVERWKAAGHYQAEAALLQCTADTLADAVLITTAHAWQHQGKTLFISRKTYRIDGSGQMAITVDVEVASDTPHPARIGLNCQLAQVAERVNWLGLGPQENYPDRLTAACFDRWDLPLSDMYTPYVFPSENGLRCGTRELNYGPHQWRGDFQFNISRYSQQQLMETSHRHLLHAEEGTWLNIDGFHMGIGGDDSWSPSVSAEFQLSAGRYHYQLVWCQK

[2] = inhibitors of intracellular T. cruzi replication, confirmation, NIH3T3 host cells, beta-gal luminescence (AID 2044); format: functional, cell-based;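 note: intracellular parasites grown in NIH/3T3 mouse fibroblasts as host cells; luminescent beta-galactosidase reporter signal from transgenic T. cruzi replicating inside host cells; inhibitors lower the luminescence signal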
[3] = molecular target: T1, Type-1 angiotensin II receptor (Homo sapiens, UniProt P30556); assay: AT1 receptor antagonists, dose response, selectivity assay for APJ receptor antagonist project, cell-based, uHTS hits (AID 463214); format: functional;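 note: antagonist potency against angiotensin II stimulated AT1 response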
T1 sequence (P30556 whole entry): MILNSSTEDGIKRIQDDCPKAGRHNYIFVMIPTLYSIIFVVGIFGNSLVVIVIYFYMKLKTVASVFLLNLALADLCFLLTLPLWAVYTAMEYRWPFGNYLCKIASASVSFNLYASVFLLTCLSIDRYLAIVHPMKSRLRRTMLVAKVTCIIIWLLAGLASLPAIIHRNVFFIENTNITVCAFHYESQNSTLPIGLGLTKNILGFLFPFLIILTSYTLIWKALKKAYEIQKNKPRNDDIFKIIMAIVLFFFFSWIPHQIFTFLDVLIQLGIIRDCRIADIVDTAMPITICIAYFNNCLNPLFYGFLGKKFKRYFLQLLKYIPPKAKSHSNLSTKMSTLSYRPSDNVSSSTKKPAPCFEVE

[4] = cytotoxicity toward NIH3T3 fibroblasts, dose response, counter-screen, cell-based, ATP luminescence, mouse fibroblasts (AID 2010); format: functional;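 note: cells exposed to compound for about 90 hours before reading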
Streptococcus = assay: Group A Streptococcus viability loss, dose response, counter-screen for streptokinase expression inhibitor project, luminescence, BacTiterGlo (AID 1915); format: functional, organism-based;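 note: potency for reduction of bacterial viability or growth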
[5] = THP-1 cell cytotoxicity, dose response, cytotoxicity control for non-replicating M. tuberculosis project (AID 489025); format: functional
[6] = HepG2 cell cytotoxicity, dose response, cytotoxicity control for non-replicating M. tuberculosis project (AID 489018); format: functional; settings: Mycobacterium tuberculosis
[7] = Vero E6 cell cytotoxicity, dose response, cytotoxicity control for non-replicating M. tuberculosis project, secondary assay (AID 492998); format: functional, VeroE6; settings: Vero C1008
cells = format: functional
[8] = molecular target: T2, Aryl hydrocarbon receptor (Homo sapiens, UniProt P35869); assay: Luminescence-based cell-based high throughput dose response assay for activators of the Aryl Hydrocarbon Receptor (AHR). [Related pubchem assays: 2796 (Primary screen (AHR activators in singlicate)), 2845 (Confirmation screen (AHR activators in triplicate)), 434939 (Counterscreen (PXR activators in triplicate)), 2804 (Summary (AHR activators))]; format: ADME
T2 sequence (P35869 whole entry): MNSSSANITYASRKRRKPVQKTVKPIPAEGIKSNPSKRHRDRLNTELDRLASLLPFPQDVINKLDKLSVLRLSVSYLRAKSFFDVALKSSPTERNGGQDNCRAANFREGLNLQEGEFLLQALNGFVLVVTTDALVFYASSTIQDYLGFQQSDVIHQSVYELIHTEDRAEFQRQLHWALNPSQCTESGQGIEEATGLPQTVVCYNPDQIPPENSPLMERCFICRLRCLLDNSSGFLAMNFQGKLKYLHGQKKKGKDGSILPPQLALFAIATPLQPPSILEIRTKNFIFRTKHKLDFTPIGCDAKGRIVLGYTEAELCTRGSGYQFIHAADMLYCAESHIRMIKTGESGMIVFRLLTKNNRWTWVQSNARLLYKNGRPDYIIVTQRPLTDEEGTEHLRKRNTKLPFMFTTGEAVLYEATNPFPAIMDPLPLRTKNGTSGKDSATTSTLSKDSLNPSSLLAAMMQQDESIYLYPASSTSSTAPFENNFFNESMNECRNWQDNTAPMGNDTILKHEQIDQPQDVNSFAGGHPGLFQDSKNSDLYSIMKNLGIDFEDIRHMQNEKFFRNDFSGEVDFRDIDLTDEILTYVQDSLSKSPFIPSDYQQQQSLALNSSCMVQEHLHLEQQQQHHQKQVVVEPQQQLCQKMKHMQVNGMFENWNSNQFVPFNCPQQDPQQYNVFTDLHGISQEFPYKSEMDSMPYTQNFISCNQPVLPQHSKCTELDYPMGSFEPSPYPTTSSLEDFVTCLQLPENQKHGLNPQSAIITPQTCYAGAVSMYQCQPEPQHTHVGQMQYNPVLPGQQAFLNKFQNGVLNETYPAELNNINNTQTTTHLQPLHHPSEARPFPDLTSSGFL

[9] = molecular target: DNA damage-inducible transcript 3 protein (Mus musculus, UniProt P35639); format: functional, Cricetulus griseus
Chain of DNA damage-inducible transcript 3 protein (P35639 whole entry): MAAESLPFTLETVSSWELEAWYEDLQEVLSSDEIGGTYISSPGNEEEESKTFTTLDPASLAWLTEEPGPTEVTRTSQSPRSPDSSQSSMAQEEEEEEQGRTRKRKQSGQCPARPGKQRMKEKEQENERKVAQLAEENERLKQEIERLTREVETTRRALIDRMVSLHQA

Trypsin = Trypsin (Sus scrofa, UniProt P00761); assay: porcine trypsin inhibitors, dose response, selectivity assay for Rce1 protease inhibitor project, biochemical, quenched peptide fluorescence, cherry-pick (AID 488789)
Chain of Trypsin (P00761 whole entry): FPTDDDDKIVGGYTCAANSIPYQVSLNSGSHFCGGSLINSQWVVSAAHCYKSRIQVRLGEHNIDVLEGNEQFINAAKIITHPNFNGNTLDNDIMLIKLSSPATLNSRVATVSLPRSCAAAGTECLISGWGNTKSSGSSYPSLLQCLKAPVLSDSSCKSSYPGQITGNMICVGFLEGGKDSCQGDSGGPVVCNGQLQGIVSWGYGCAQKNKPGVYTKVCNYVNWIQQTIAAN

CAAX prenyl protease 2 = molecular target: T3, CAAX prenyl protease 2 (Saccharomyces cerevisiae S288c, UniProt Q03530); format: biochemical
T3 sequence (Q03530 whole entry): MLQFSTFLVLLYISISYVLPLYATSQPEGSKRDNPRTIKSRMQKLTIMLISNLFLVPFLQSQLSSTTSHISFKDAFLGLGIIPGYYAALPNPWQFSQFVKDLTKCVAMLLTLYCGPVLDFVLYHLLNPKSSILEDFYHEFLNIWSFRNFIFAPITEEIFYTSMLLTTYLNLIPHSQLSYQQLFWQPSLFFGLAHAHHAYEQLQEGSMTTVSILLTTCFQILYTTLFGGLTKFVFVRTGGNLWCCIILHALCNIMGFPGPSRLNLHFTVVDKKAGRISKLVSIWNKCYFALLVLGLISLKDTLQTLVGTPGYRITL

N=C1S/C(=C\c2ccco2)C(=O)N1c1nccs1
EC50 [1]: 3.66 µM (active) | EC50 (Beta-galactosidase): > 40 µM (inactive) | EC50 [2]: 2.11 µM (active) | IC50 [3]: 7.86 µM (active) | EC50 [4]: > 30 µM (not active) | EC50 (Streptococcus): 9.61 µM (active) | CC50 [5]: 15.7 µM (active) | CC50 [6]: > 20 µM (active) | CC50 [7]: 9.33 µM (active) | IC50 (cells): 0.2 µM (active)

CCOC(=O)Cc1cc(-c2ccc(O)cc2)nc2ccc3ccccc3c12
EC50 [8]: 1.47 µM (active) | Absolute IC50 (CHOP) [9]: 10 µM

c1ccc(-n2nnnc2SCc2cn3cccnc3n2)cc1
AC50 (Trypsin): 18.6 µM (active) | AC50 (CAAX prenyl protease 2): 10.5 µM (active)
